This note sets out measurements from patent US11655450B2, “Method for inducing differentiation of stem cell into dopaminergic neural precursor cell” (S-BIOMEDICS, priority 2019, dated 2023).

One assay has as its system FOXA2 and/or LMX1A. Description: Immunocytochemistry of FOXA2 and/or LMX1A expression during differentiation into dopaminergic neural precursor cells. The class given is cell-based, human. The method, then: Cells were fixed for 10 min in a 4% paraformaldehyde solution.
In order to smoothly penetrate into the cytoplasm, […] incubated with 0.1% Trition X-100 (in PBS) for 15 min and then with 2% bovine serum albumin (BSA, in PBS) for 1 hour at room temperature.
Subsequently, the primary antibodies (see Table 1, below) were allowed to bind to the cells at 4° C. Secondary antibodies suitable for the respective primary antibody species (see Table 1, below) were used to confirm the primary antibody-bound cells.
Finally, cell nuclei were imaged. In this regard, the cells were incubated with 4′, […] (DAPI) in PBS for 10 min to stain the nuclei which were then imaged under a fluorescence microscope. Important markers were identified and analyzed.
The cells were differentiated into dopaminergic neural precursor cells in the same manner as the method of the present invention, with the exception of treating the cells with SAG and CHIR99021 at respective concentrations of 0.5 μM and 1.0 μM, or 1.0 μM and 1.5 μM, instead of 1.0 μM and 2.0 μM. With the expression of FOXA2 and/or LMX1A, this method was compared to the method of the present disclosure.

The test system of the next assay is stem cells. Nature of the assay: Cell adhesion test with ECM. The class given is cell-based, human. Here is the method:
With respect to CELLstart and various concentrations (2-7 μg/mL) of ECM (Laminin 521), stem cells were cultured using the same protocol as in the above Examples to conduct a cell adhesion test.

For `CNC1CCC(N(Cc2cccc(-c3ccncc3)c2)C(=O)c2sc3ccccc3c2Cl)CC1.Cl.Cl.O.O` (centres unmarked) [SAG], the “expression of FOXA2” value with FOXA2 and/or LMX1A (marker for dopaminergic neural precursor cells, as explained in the Example section) is reported as “upregulate the expression of FOXA2”. For the molecule “Laminin-521: ECM (Laminin 521) used to coat culture dishes”, the cell adhesion result with stem cells (2 μg/mL and 3 μg/mL) is on record as “too poor adhesion to conduct the test”; in the assay on stem cells (4 μg/mL and 5 μg/mL), “relatively high adhesion”. In the assay on stem cells (6 μg/mL and 7 μg/mL), the “cell state on ECM” value was “spontaneous differentiation at high frequency”.

Turning to `Cc1c[nH]c(-c2cnc(NCCNc3ccc(C#N)cn3)nc2-c2ccc(Cl)cc2Cl)n1` [CHIR99021, 6-[[2-[[4-(2,4-dichlorophenyl)-5-(5-methyl-1H-imidazol-2-yl)-2-pyrimidinyl]amino]ethyl]amino]-3-pyridinecarbonitrile], the “expression of LMX1A and En-1” value in the assay with FOXA2 and/or LMX1A (markers for dopaminergic neural precursor cells, as illustrated in the Example section) was “upregulate the expression of LMX1A and En-1”.
